# Patent publication US11731946B2, “Broad spectrum antivirulence, anti-persistence compounds” (priority 2017, dated 2023)
# “And” between values parts separate entries of the source, which are not always exact repeats. Identical values can stand only once. Like-named read-outs stand apart in the source and are kept apart here.
# Assays:
# [1] = system: MvfR regulon; assay: LC/MS quantification of HAQs and related molecules in bacterial culture supernatants; assay type: cell-based, P. aeruginosa; conditions: for IC50 / activity at 50 µM: Pseudomonas aeruginosa
# [2] = molecular target: T1, MvfR (Pseudomonas aeruginosa, UniProt Q9I4X0); assay: Surface plasmon resonance (SPR) binding to purified MvfR co-inducer binding domain; set-up: species or system P. aeruginosa
# T1 construct: made in house
# Experimental: Compounds identified to interfere with MvfR were confirmed for the direct physical interaction with this protein. Using SPR, the percentage of compound's binding to the purified MvfR protein was analyzed and used to determine the binding parameters (KD, kon and koff)—thus determining the kinetic of interaction with MvfR.
# The recombinant MvfR co-inducer binding domain was purified using Ni-NTA chromatography, as previously reported (see e.g., Xiao et al, Microbiology, 2006, 152:1679-1686; Starkey et al, PLoS Pathog. 2014, 10:e1004321; and Kefala et al, Acta. Crystallogr. Sect. F. Struct. Biol. Cryst. Commun. 2012, 68:695-697). The purified protein was immobilized with the amine coupling method at a target level of 5000 RU on Chip. SPR was performed according to previously reported procedures (see e.g., Starkey et al, PLoS Pathog. 2014, 10:e1004321; Maura et al, ACS Chemical Biology, 2017, 12:1435-1443; and Kitao et al, MBIO, in press). […] Table 3 lists the steady-state KD data measured by SPR.
# [3] = system: Caco2 intestinal epithelial cells; assay: Survival of Caco2 cells after compound exposure; assay type: cell-based; conditions: 25 μM, 3 hours exposure
# T1 sequence (Q9I4X0 91-332): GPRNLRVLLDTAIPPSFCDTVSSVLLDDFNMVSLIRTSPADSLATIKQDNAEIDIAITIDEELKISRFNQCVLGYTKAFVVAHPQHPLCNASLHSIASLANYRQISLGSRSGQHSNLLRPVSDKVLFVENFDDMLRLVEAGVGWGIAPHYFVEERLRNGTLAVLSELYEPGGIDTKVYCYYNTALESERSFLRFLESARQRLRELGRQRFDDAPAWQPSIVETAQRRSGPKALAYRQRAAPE
compound,measurement,setting,value
N#Cc1ccc(NC(=O)CC(=O)Nc2ccc(Br)cc2)cc1 [Compound 54],IC50,"[1]; PA14, read-out: IC50 2-AA (μM)",4.7 µM
same,IC50,"[1]; PA14, read-out: IC50 DHQ (μM)",10.1 µM
same,IC50,"[1]; PA14, read-out: IC50 HHQ (μM)",11.2 µM
same,IC50,"[1]; PA14, read-out: IC50 PQS (μM)",7.8 µM
same,activity at 50 µM,[1]; read-out: 2-AA @50 uM,5.63%
same,activity at 50 µM,[1]; read-out: AA @50 uM,701%
same,activity at 50 µM,[1]; read-out: DHQ @50 uM,10.6%
same,activity at 50 µM,[1]; read-out: HHQ @50 uM (%),1.76%
same,activity at 50 µM,[1]; read-out: HQNO @50 uM (%),12.5%
same,IC50,[1]; read-out: IC50 AA (increase; μM),11.3 µM
same,IC50,[1]; read-out: IC50 HQNO (μM),8.7 µM
same,activity at 50 µM,[1]; read-out: PQS @50 uM (%),7.4%
same,reduction of hydroxy-2-alkylquinoline (HAQ) and 2-AA production,[1]; liquid culture grown with 50 µM Compound 54 (FIG. 1C),5 to 10 fold
same,binding to MvfR (in words),[2]; FIG. 1B,high affinity
same,Signal Intensity Rmax,[2]; SPR,28.21
same,binding intensity relative to parent Compound 1,[2]; SPR,40 times
same,Kd,"[2]; Steady State Binding Affinity KD (μM), SPR, steady state",0.275 µM
same,Kd,"[2]; Steady State Binding Affinity KD [M], SPR, steady state",0.275 µM
same,Kd,"[2]; mean KD value, SPR, mean over the compounds named",~0.25 µM and 0.25 µM
same,toxicity to Caco2 (survival),[3],not toxic
